Where a SMILES comes first, the peptide text is derived from it.
Columns and labels:
[1] = Ratio of Thrombin Kass/Urokinase Kass
[2] = Ratio of Thrombin Kass/plasmin Kass
[3] = Ratio of Thrombin Kass/tissue plasminogen activator Kass
[4] = Ratio of Thrombin Kass/trypsin Kass

Selectivity [1]	Selectivity [2]	Selectivity [3]	Selectivity [4]	SMILES
13000	390	1800	5.1	NC(N)=NCCC[C@@H](C=O)NC(=O)[C@@H]1CCCN1C(=O)[C@H](N)Cc1ccccc1
31000	4600	920	33	NC(N)=NCCCCNC(=O)[C@@H]1CCCN1C(=O)[C@H](N)Cc1ccccc1 (HELM PEPTIDE1{[dF].P.[N=C(N)NCCCCN[*:1]]}$$$$V2.0)
400000	26000	170000	130	N=C(N)c1ccc(CNC(=O)[C@@H]2CCCN2C(=O)[C@H](N)Cc2ccccc2)cc1
